# Reference: patent publication US8076324B2, “Di(hetero)arylcyclohexane derivatives, their preparation, their use and pharmaceutical compositions comprising them” (Sanofi-Aventis, priority 2007, dated 2011)
# Tests used:
# [1] = target: T1, myocardial ATP-sensitive potassium channel (SUR2A/Kir6.2) (UniProt Q61743+Q63563); assay: Rubidium efflux test on HEK293 cells transfected with SUR2A and Kir6.2 (myocardial action); format: cell-based, SUR2A from the rat, Kir6.2 from the mouse; conditions: HEK293 cells transfected with SUR2A/Kir6.2; KATP channels opened by rilmakalim; 25 min incubation; read-out: IC50 values for the inhibition of the rubidium efflux
# T1 construct: expressed in transfected cells
# T1 sequence (Q63563 whole entry): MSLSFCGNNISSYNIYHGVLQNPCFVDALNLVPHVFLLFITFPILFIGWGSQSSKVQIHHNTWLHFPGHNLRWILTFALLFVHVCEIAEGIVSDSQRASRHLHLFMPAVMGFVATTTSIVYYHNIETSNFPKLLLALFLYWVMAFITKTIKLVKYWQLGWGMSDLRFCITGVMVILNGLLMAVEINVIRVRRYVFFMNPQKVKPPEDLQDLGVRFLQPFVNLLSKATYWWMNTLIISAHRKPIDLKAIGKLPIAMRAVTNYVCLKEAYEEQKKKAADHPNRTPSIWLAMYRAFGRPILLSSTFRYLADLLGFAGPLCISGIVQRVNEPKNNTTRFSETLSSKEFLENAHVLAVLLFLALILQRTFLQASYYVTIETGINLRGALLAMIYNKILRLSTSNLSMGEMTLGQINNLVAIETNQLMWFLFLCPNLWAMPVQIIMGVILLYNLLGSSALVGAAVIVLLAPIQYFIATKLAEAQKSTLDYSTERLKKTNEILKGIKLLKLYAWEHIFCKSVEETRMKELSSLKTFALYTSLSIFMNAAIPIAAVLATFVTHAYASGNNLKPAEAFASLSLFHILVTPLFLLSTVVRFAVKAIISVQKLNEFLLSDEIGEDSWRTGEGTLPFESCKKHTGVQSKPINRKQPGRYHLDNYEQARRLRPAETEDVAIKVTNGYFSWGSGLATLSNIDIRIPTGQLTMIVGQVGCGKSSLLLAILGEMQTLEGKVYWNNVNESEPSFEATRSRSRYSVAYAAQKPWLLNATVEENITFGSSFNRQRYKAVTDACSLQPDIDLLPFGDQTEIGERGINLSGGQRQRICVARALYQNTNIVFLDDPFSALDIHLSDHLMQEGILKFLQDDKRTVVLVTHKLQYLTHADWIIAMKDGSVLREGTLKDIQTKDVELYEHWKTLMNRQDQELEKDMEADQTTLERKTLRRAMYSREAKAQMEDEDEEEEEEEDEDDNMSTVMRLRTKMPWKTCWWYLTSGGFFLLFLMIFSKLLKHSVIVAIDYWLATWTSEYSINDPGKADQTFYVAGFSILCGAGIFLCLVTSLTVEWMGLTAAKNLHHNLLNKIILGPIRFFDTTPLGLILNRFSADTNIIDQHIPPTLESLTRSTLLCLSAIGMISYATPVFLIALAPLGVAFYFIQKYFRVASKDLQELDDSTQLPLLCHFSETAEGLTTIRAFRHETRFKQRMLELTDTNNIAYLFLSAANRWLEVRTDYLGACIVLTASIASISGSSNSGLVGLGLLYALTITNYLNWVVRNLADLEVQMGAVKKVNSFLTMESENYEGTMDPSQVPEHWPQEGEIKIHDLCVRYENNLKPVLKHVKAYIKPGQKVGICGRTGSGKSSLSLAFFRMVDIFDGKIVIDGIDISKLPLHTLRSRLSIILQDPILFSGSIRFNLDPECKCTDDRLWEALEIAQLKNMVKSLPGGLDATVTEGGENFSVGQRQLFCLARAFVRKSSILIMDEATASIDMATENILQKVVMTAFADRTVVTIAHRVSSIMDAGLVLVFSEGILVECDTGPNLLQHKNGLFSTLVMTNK
# T1 sequence (Q61743 whole entry): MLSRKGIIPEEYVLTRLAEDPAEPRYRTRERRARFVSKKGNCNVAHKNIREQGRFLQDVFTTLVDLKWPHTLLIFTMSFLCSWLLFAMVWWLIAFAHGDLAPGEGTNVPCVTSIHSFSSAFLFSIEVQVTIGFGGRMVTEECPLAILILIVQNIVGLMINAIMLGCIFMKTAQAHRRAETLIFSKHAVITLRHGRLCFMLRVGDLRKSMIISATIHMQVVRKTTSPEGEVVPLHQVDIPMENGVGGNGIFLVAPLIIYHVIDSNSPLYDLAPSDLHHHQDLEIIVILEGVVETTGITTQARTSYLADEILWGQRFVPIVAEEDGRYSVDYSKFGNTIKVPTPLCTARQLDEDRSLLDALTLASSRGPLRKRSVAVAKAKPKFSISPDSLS
# Procedure, shortened: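 HEK293 cells stably expressing mouse Kir6.2 and rat SUR2A loaded 3 h at 37 °C with 5.4 mM RbCl, then test compound added and channels opened with rilmakalim (2 μM, stock as added) for 25 min at 37 °C. Rb+ in supernatant and lysate by atomic absorption; efflux = supernatant/total, IC50 via Hill equation.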
Compound,IC50 [1],melting point
"Cc1nc([C@]2(OCC3CC3)CC[C@](C(=O)O)(c3ccccc3)CC2)n(CC2CC2)c1C#N [Example 419, Cis-4-(5-Cyano-1-cyclopropylmethyl-4-methyl-1H-imidazol-2-yl)-4-cyclopropylmethoxy-1-phenylcyclohexanecarboxylic Acid]",< 1 µM,228 °C
"Cc1nc([C@]2(OCC3CC3)CC[C@](C(=O)O)(c3ccc(F)cc3)CC2)n(CC2CC2)c1Cl [Example 363, Cis-4-(5-Chloro-1-cyclopropylmethyl-4-methyl-1H-imidazol-2-yl)-4-cyclopropylmethoxy-1-(4-fluorophenyl)cyclohexanecarboxylic Acid]",< 1 µM,184 °C
"Cc1c(Br)nc([C@]2(OCC3CC3)CC[C@](C(=O)O)(c3ccc(F)cc3)CC2)n1CC1CC1 [Example 350, Cis 4-(4-Bromo-1-cyclopropylmethyl-5-methyl-1H-imidazol-2-yl)-4-cyclopropylmethoxy-1-(4-fluorophenyl)cyclohexanecarboxylic Acid]",< 1 µM,210 °C
"Cc1c(Br)nc([C@]2(Oc3ccccc3)CC[C@](C(=O)O)(c3ccc(F)cc3)CC2)n1CC1CC1 [Example 403, Cis-4-(4-Bromo-1-cyclopropylmethyl-5-methyl-1H-imidazol-2-yl)-4-phenoxy-1-(4-fluorophenyl)cyclohexanecarboxylic Acid]",< 1 µM,158 °C
"Cc1nc([C@]2(Oc3ccccc3)CC[C@](C(=O)O)(c3ccccc3)CC2)n(CC2CC2)c1Cl [Example 400, Cis 4-(5-Chloro-1-cyclopropylmethyl-4-methyl-1H-imidazol-2-yl)-4-phenoxy-1-phenylcyclohexanecarboxylic Acid]",< 1 µM,170 °C

# The remaining lines, values ahead:
IC50 [1],melting point,Compound
< 1 µM,198 °C,"CS(=O)(=O)c1cccc(-c2nc([C@]3(Oc4ccccc4)CC[C@@](C(=O)O)(c4ccccc4)CC3)n(CC3CC3)n2)c1 [Example 463, Trans-4-[2-Cyclopropylmethyl-5-(3-methanesulfonylphenyl)-2H-[1,2,4]triazol-3-yl]-4-phenoxy-1-phenylcyclohexanecarboxylic Acid]"
< 1 µM,242 °C,"Cc1c(S(C)(=O)=O)nc([C@]2(OCC3CC3)CC[C@](C(=O)O)(c3ccccc3)CC2)n1CC1CC1 [Example 422, Cis-4-Cyclopropylmethoxy-4-(1-cyclopropylmethyl-5-methyl-4-methanesulfonyl-1H-imidazol-2-yl)-1-phenylcyclohexanecarboxylic Acid]"
< 1 µM,185 °C,"Cc1c(Cl)nc([C@]2(OCC3CC3)CC[C@](C(=O)O)(c3ccc(F)cc3)CC2)n1CC1CC1 [Example 360, Cis-4-(4-Chloro-1-cyclopropylmethyl-5-methyl-1H-imidazol-2-yl)-4-cyclopropylmethoxy-1-(4-fluorophenyl)cyclohexanecarboxylic Acid]"
< 1 µM,> 300 °C,"O=C(O)[C@]1(c2ccc(F)cc2)CC[C@](Oc2ccccn2)(c2ccc(F)cn2)CC1 [Example 339, Trans-1-(4-Fluorophenyl)-4-(5-fluoropyridin-2-yl)-4-(pyridin-2-yloxy)cyclohexanecarboxylic Acid]"
